What was measured:
[1] = Inhibition of Plasmodium falciparum HGXPRT
[2] = target: T1, Hypoxanthine-guanine phosphoribosyltransferase (Homo sapiens, UniProt P00492); assay: Inhibition of human HGPRT
T1 sequence (P00492 whole entry): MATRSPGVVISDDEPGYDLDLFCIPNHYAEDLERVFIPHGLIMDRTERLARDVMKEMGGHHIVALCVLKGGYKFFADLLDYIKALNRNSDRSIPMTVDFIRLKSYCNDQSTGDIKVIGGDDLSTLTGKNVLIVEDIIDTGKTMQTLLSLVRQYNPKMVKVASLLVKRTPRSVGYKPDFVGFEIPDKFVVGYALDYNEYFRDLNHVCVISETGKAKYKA

[3] = Inhibition of Plasmodium vivax HGPRT

Structure (SMILES): O=P(O)(O)CCCCCn1cnc2c(O)ncnc21
- Ki [1]: 21 µM
- Ki [2]: > 100 µM

Structure (SMILES): Nc1nc(O)c2ncn(CCCCCCCP(=O)(O)O)c2n1
- Ki [1]: 10 µM
- Ki [2]: 5 µM

Structure (SMILES): Nc1nc(O)c2ncn(COCCCCP(=O)(O)O)c2n1
- Ki [1]: 200 µM
- Ki [3]: > 100 µM
- Ki [2]: 0.4 µM

Structure (SMILES): Nc1nc2c(ncn2CCP(=O)(O)O)c(=O)[nH]1
- Ki [1]: > 100 µM
- Ki [3]: > 100 µM
- Ki [2]: > 100 µM

Structure (SMILES): Nc1nc2c(ncn2CP(=O)(O)O)c(=O)[nH]1
- Ki [1]: > 100 µM
- Ki [3]: > 100 µM
- Ki [2]: > 100 µM

Structure (SMILES): O=c1[nH]cnc2c1ncn2CP(=O)(O)O
- Ki [1]: > 100 µM
- Ki [3]: > 100 µM
- Ki [2]: 1.9 µM

Structure (SMILES): O=c1[nH]cnc2c1ncn2CCP(=O)(O)O
- Ki [1]: 2.2 µM
- Ki [3]: > 100 µM
- Ki [2]: 3.4 µM

Structure (SMILES): Nc1nc2c(ncn2CCCP(=O)(O)O)c(=O)[nH]1
- Ki [1]: > 100 µM
- Ki [3]: > 100 µM
- Ki [2]: > 100 µM

Structure (SMILES): O=c1[nH]cnc2c1ncn2CCCP(=O)(O)O
- Ki [1]: > 100 µM
- Ki [3]: > 100 µM
- Ki [2]: > 100 µM

Structure (SMILES): O=c1[nH]cnc2c1ncn2CCCCP(=O)(O)O
- Ki [1]: > 100 µM
- Ki [3]: > 100 µM
- Ki [2]: > 100 µM

Structure (SMILES): O=c1[nH]cnc2c1ncn2COCCP(=O)(O)O
- Ki [1]: 25 µM
- Ki [3]: 30 µM
- Ki [2]: 56 µM

Structure (SMILES): Nc1nc2c(ncn2COCCCP(=O)(O)O)c(=O)[nH]1
- Ki [1]: 6.7 µM
- Ki [3]: 1 µM
- Ki [2]: 3 µM

Structure (SMILES): Nc1nc2c(ncn2CCCCCCP(=O)(O)O)c(=O)[nH]1
- Ki [1]: > 100 µM
- Ki [3]: > 100 µM
- Ki [2]: 0.5 µM

Structure (SMILES): O=c1[nH]cnc2c1ncn2CCCCCCP(=O)(O)O
- Ki [1]: 97 µM
- Ki [2]: 77 µM

Structure (SMILES): O=c1[nH]cnc2c1ncn2COCCCCP(=O)(O)O
- Ki [1]: 29 µM
- Ki [2]: 28 µM

Structure (SMILES): O=c1[nH]cnc2c1ncn2CCCCCCCP(=O)(O)O
- Ki [1]: > 100 µM
- Ki [3]: > 100 µM
- Ki [2]: > 100 µM

Structure (SMILES): Nc1nc(O)c2ncn(CCCCP(=O)(O)O)c2n1
- Ki [1]: > 100 µM
- Ki [3]: > 100 µM
- Ki [2]: 21 µM

Structure (SMILES): Nc1nc(O)c2ncn(COCCP(=O)(O)O)c2n1
- Ki [1]: 5 µM
- Ki [3]: 24 µM
- Ki [2]: 31 µM

Structure (SMILES): Nc1nc(O)c2ncn(CCCCCP(=O)(O)O)c2n1
- Ki [1]: 2 µM
- Ki [3]: 6 µM
- Ki [2]: 0.5 µM
